Results reported in ChEMBL document CHEMBL3112450, “Synthesis and in vitro antitumor evaluation of primary amine substituted quinazoline linked benzimidazole” (Bioorg Med Chem Lett, 2014).

Key:
Assay type in all cases: functional
NCI-H322M [1] = experiment: Cytotoxicity against human NCI-H322M cells after 48 hrs by SRB assay
SK-MEL-5 [2] = experiment: Cytotoxicity against human SK-MEL-5 cells assessed as cell growth at 10^-7 M after 48 hrs by SRB assay; conditions: SK-MEL-5, 48 h, read-out: Activity
Malme-3M [3] = experiment: Cytotoxicity against human MALME-3M cells assessed as cell growth at 10^-4 M after 48 hrs by SRB assay; conditions: read-out: Activity
Malme-3M [4] = experiment: Cytotoxicity against human MALME-3M cells assessed as cell growth at 10^-8 M after 48 hrs by SRB assay; conditions: read-out: Activity
SK-MEL-5 [5] = experiment: Cytotoxicity against human SK-MEL-5 cells assessed as cell growth at 10^-8 M after 48 hrs by SRB assay; conditions: SK-MEL-5, 48 h, read-out: Activity
[6] = Cytotoxicity against human OVCAR5 cells assessed as cell growth at 10^-6 M after 48 hrs by SRB assay; conditions: OVCAR-5, 48 h, read-out: Activity
RPMI-8226 [7] = experiment: Cytotoxicity against human RPMI8226 cells after 48 hrs by SRB assay; conditions: RPMI-8226, 48 h
NCI-H522 [8] = experiment: Cytotoxicity against human NCI-H522 cells after 48 hrs by SRB assay; conditions: NCI-H522, 48 h
MCF7 = experiment: Cytotoxicity against human MCF7 cells assessed as cell growth at 10^-8 M after 48 hrs by SRB assay; conditions: MCF7, 48 h, read-out: Activity
SK-MEL-28 = experiment: Cytotoxicity against human SK-MEL-28 cells after 48 hrs by SRB assay; conditions: SK-MEL-28, 48 h
MOLT-4 [9] = experiment: Cytotoxicity against human MOLT4 cells assessed as cell growth at 10^-7 M after 48 hrs by SRB assay; conditions: MOLT-4, 48 h, read-out: Activity
A498 [10] = experiment: Cytotoxicity against human A498 cells assessed as cell growth at 10^-8 M after 48 hrs by SRB assay; conditions: A498, 48 h, read-out: Activity
HCT-15 = experiment: Cytotoxicity against human HCT15 cells assessed as cell growth at 10^-7 M after 48 hrs by SRB assay; conditions: HCT-15, 48 h, read-out: Activity
SF-268 = experiment: Cytotoxicity against human SF268 cells assessed as cell growth at 10^-7 M after 48 hrs by SRB assay; conditions: SF-268, 48 h, read-out: Activity
SW-620 [11] = experiment: Cytotoxicity against human SW620 cells assessed as cell growth at 10^-8 M after 48 hrs by SRB assay; conditions: SW-620, 48 h, read-out: Activity
[12] = Cytotoxicity against human UO31 cells assessed as cell growth at 10^-4 M after 48 hrs by SRB assay; conditions: UO-31, 48 h, read-out: Activity
[13] = Cytotoxicity against human UO31 cells assessed as cell growth at 10^-7 M after 48 hrs by SRB assay; conditions: UO-31, 48 h, read-out: Activity
KM12 = experiment: Cytotoxicity against human KM12 cells assessed as cell growth at 10^-7 M after 48 hrs by SRB assay; conditions: KM12, 48 h, read-out: Activity
HOP-92 = experiment: Cytotoxicity against human HOP92 cells assessed as cell growth at 10^-8 M after 48 hrs by SRB assay; conditions: HOP-92, 48 h, read-out: Activity
NCI-H522 [14] = experiment: Cytotoxicity against human NCI-H522 cells assessed as cell growth at 10^-6 M after 48 hrs by SRB assay; conditions: NCI-H522, 48 h, read-out: Activity
[15] = Cytotoxicity against human UO31 cells after 48 hrs by SRB assay; conditions: UO-31, 48 h
NCI-H322M [16] = experiment: Cytotoxicity against human NCI-H322M cells assessed as cell growth at 10^-8 M after 48 hrs by SRB assay; conditions: read-out: Activity
RPMI-8226 [17] = experiment: Cytotoxicity against human RPMI8226 cells assessed as cell growth at 10^-4 M after 48 hrs by SRB assay; conditions: RPMI-8226, 48 h, read-out: Activity
CCRF-CEM [18] = experiment: Cytotoxicity against human CCRF-CEM cells assessed as cell growth at 10^-4 M after 48 hrs by SRB assay; conditions: read-out: Activity
[19] = Cytotoxicity against human OVCAR5 cells assessed as cell growth at 10^-4 M after 48 hrs by SRB assay; conditions: OVCAR-5, 48 h, read-out: Activity
COLO 205 = experiment: Cytotoxicity against human COLO205 cells assessed as cell growth at 10^-8 M after 48 hrs by SRB assay; conditions: COLO 205, 48 h, read-out: Activity
[20] = Cytotoxicity against human OVCAR4 cells assessed as cell growth at 10^-8 M after 48 hrs by SRB assay; conditions: OVCAR-4, 48 h, read-out: Activity
RXF 393 [21] = experiment: Cytotoxicity against human RXF393 cells assessed as cell growth at 10^-7 M after 48 hrs by SRB assay; conditions: RXF 393, 48 h, read-out: Activity
A498 [22] = experiment: Cytotoxicity against human A498 cells assessed as cell growth at 10^-4 M after 48 hrs by SRB assay; conditions: A498, 48 h, read-out: Activity
T47D = experiment: Cytotoxicity against human T47D cells assessed as cell growth at 10^-8 M after 48 hrs by SRB assay; conditions: read-out: Activity
CCRF-CEM [23] = experiment: Cytotoxicity against human CCRF-CEM cells after 48 hrs by SRB assay
M14 = experiment: Cytotoxicity against human M14 cells assessed as cell growth at 10^-4 M after 48 hrs by SRB assay; conditions: M14, 48 h, read-out: Activity
[24] = Cytotoxicity against human Hs578T cells after 48 hrs by SRB assay; conditions: Hs-578T
RXF 393 [25] = experiment: Cytotoxicity against human RXF393 cells assessed as cell growth at 10^-8 M after 48 hrs by SRB assay; conditions: RXF 393, 48 h, read-out: Activity
[26] = Cytotoxicity against human Hs578T cells assessed as cell growth at 10^-4 M after 48 hrs by SRB assay; conditions: Hs-578T, read-out: Activity
Malme-3M [27] = experiment: Cytotoxicity against human MALME-3M cells assessed as cell growth at 10^-7 M after 48 hrs by SRB assay; conditions: read-out: Activity
MOLT-4 [28] = experiment: Cytotoxicity against human MOLT4 cells assessed as cell growth at 10^-4 M after 48 hrs by SRB assay; conditions: MOLT-4, 48 h, read-out: Activity
SW-620 [29] = experiment: Cytotoxicity against human SW620 cells assessed as cell growth at 10^-7 M after 48 hrs by SRB assay; conditions: SW-620, 48 h, read-out: Activity
HCT-116 = experiment: Cytotoxicity against human HCT116 cells after 48 hrs by SRB assay; conditions: HCT-116, 48 h
UACC-62 = experiment: Cytotoxicity against human UACC62 cells assessed as cell growth at 10^-7 M after 48 hrs by SRB assay; conditions: UACC-62, 48 h, read-out: Activity

Work on C=CCn1c(C)nc2cc(Nc3nc(Nc4ccc5nc(C)n(CC=C)c5c4)c4ccccc4n3)ccc21 yielded a GI50 (NCI-H322M [1]) of 0.717 µM, an LC50 (NCI-H322M [1]) of 4.47 µM and a TGI (NCI-H322M [1]) of 2 µM. The growth at 0.1 µM (SK-MEL-5 [2]) was 94%, the growth at 100 µM (Malme-3M [3]) was -42% and the growth at 0.01 µM (Malme-3M [4]) was 95%. For the same compound, the growth at 0.01 µM (SK-MEL-5 [5]) was 100%, the growth at 1 µM [6] was 20% and the GI50 (RPMI-8226 [7]) was 1.24 µM. It also gave an LC50 (RPMI-8226 [7]) of over 100 µM, a TGI (RPMI-8226 [7]) of 3.93 µM and a GI50 (NCI-H522 [8]) of 0.171 µM. For the same compound, the TGI (NCI-H522 [8]) was 0.332 µM, the growth at 0.01 µM (MCF7) was 101% and the GI50 (SK-MEL-28) was 2.02 µM. The TGI (SK-MEL-28) was 3.86 µM, the growth at 0.1 µM (MOLT-4 [9]) was 91% and the growth at 0.01 µM (A498 [10]) was 101%. The growth at 0.1 µM (HCT-15) was 96%, the growth at 0.1 µM (SF-268) was 91% and the growth at 0.01 µM (SW-620 [11]) was 97%. The growth at 100 µM [12] was -56%, the growth at 0.1 µM [13] was 86% and the growth at 0.1 µM (KM12) was 98%. It also gave a growth at 0.01 µM (HOP-92) of 85%, a growth at 1 µM (NCI-H522 [14]) of -83% and a GI50 [15] of 1.34 µM. The LC50 (concentration causing 50% net cell kill) [15] was 5.17 µM, the TGI [15] was 2.63 µM and the growth at 0.01 µM (NCI-H322M [16]) was 92%. For the same compound, the growth at 100 µM (RPMI-8226 [17]) was -20%, the growth at 100 µM (CCRF-CEM [18]) was -19% and the growth at 100 µM [19] was -44%. The growth at 0.01 µM (COLO 205) was 101%, the growth at 0.01 µM [20] was 93% and the growth at 0.1 µM (RXF 393 [21]) was 88%. The growth at 100 µM (A498 [22]) was -85%, the growth at 0.01 µM (T47D) was 92% and the GI50 (CCRF-CEM [23]) was 0.296 µM. It also gave an LC50 (CCRF-CEM [23]) of over 100 µM, a TGI (CCRF-CEM [23]) of 0.769 µM and a growth at 100 µM (M14) of -4%. The GI50 [24] was 2.16 µM, the LC50 [24] was over 100 µM and the TGI [24] was 5.16 µM. For the same compound, the growth at 0.01 µM (RXF 393 [25]) was 101%, the growth at 100 µM [26] was -21% and the growth at 0.1 µM (Malme-3M [27]) was 97%. The growth at 100 µM (MOLT-4 [28]) was -18%, the growth at 0.1 µM (SW-620 [29]) was 98% and the GI50 (HCT-116) was 0.214 µM. It also gave a growth at 0.1 µM (UACC-62) of 98%.
